Laboratory results reported in patent publication US20220142995A1, “DUAL ATM AND DNA-PK INHIBITORS FOR USE IN ANTI-TUMOR THERAPY” (XRAD Therapeutics, Inc., priority 2019, published 2022).

Assays:
MCF7 cells = test: Clonogenic survival assay in MCF7 cells with or without radiation; format: cell-based, human; settings: for Fold 2 Gy / Fold 4 Gy: relative to DMSO
Experimental: Cell Culture. The MCF-7 human breast carcinoma cell line and HCT116 p53 wild-type and HCT116 p53−/− cell lines were obtained from ATCC. MCF7 and HCT116 cells were cultured in Dulbecco's modified Eagle's medium (DMEM (Gibco #11995-065). MDA-MB-231 human triple negative breast cancer cell line and FADU, human head and neck squamous cell carcinoma line, were obtained from Charles River Laboratories (Morrisville, N.C.). MDA-MB-231 cells were cultured in RPMI 1640 medium (Gibco, 11875-093). FADU cells were cultured in Minimum Essential Medium a (MEM a) (Gibco, 12571-063) supplemented with 1 mM Sodium Pyruvate (Gibco, 11360-070), 1×MEM Non-Essential Amino Acids (Gibco, 11140-050). All cell lines were supplemented with 10% fetal bovine serum (FBS) (Corning, 35-010-CV) and 1× Anti biotic-Anti mycotic (Gibco #15240-062) and were grown at […]. All cell lines were authenticated by short tandem repeat profiling and tested negative for mycoplasma.
Clonogenic survival assay. This assay was performed with compound 569. Cells were plated in 6-well plates at different densities: 250 cells for no IR control, 5000 cells for 2 Gy of IR and 10000 cells for 4 Gy of IR and cultured overnight. The next day, cells were preincubated with compound 569 at 100, 250, 500, or 1000 nM or DMSO for 30 min before being exposed to increasing doses of IR (0, 2, or 4 Gy). After IR, cells were continuously incubated with DMSO or compound 569 for 5 h before the culture medium was removed and cells were washed with PBS. Cells were cultured in complete medium in the absence of inhibitor for 9 days. Then cells were stained (PBS, 0.0037% v/v formaldehyde, 0,1% crystal violet) rinsed with water and dried.

[1] = tested on: pDNA-PK/DNA-PK in MDA-231 tumors; test: Pharmacodynamic assay, pDNA-PK/DNA-PK in MDA-231 tumors; format: in vivo, mice
Excerpt: (§1) Tumor Studies. Female NCr nu/nu mice (Crl:NU(NCr)-Foxn1 nu, Strain 490) were obtained from Charles River at 5-6 weeks of age. All animal procedures used in these studies were approved by the Institutional Animal Care and Use Committee (IACUC) at Duke University.
(§2) FADU or MDA-MB-231 cells were harvested during log phase growth for in vivo implantation. The resuspended cells were washed three times in phosphate buffered saline (PBS) before preparing the working dilution in PBS. FADU cells were diluted to 1×10^7 cells/mL and MDA-MB-231 cells were diluted to 5×10^7 cells/mL. Each mouse was injected subcutaneously in the right flank with 100 μL of the cellular suspension. Tumor growth was monitored until the tumors reached a target volume of at least 100 mm^3, at which point mice were randomly stratified into four treatment groups.
(§3) The vehicle used in this study was 0.5% (Hydroxypropyl)methyl cellulose (HPMC) and 0.2% Tween80 dissolved in deionized water. The pH of the vehicle was adjusted to 7.0-8.0 and the vehicle was stored at 4° C. On each day of in vivo treatment an appropriate mass of test compound was added to the vehicle at room temperature. The mixture was vortexed as necessary to generate a final concentration of 1.6 mg/mL.
(§4) Pharmacodynamic (PD) assays. Tumor studies were performed as follows. Mice bearing FADU or MDA-231 tumors were pre-dosed with vehicle alone or compound 569 alone at 3, 6, and 10 mg/kg. Tumors were then irradiated with 10 Gy 45 min after vehicle or compound 569 administration or left unirradiated (vehicle and compound 569 at 10 mg/kg). Tumors were harvested 1 h post radiation.
(§5) Tissue homogenates for pharmacodynamic analyses were collected and processed as follows. Tumor tissues from FADU or MDA-MB-231 tumors were flash frozen in liquid nitrogen and pulverized on dry ice using a tissue pulverizer. A portion of the tumor powder was transferred into a microtube, followed by addition of 500 μL of RIPA buffer [[…], pH 8.0, 150 mM NaCl, 0.1% SDS, 0.5% sodium deoxycholate, 1% IGEPAL® CA-630 (Sigma, 18896)]. To 10 ml of RIPA buffer, 2 tablets each of Protease inhibitor and Phosphatase inhibitor (Roche, #04693159001 & #04906837001), 200 μL of 0.1 M PMSF and 160 μL of Aprotinin, (Sigma, A6279) were added. The suspension was homogenized on ice with a pellet pestle motor (KONTES) and incubated on ice for 30 minutes. Cell lysates were centrifuged at 13,200 rpm for 15 min at 4° C. and supernatants were transferred to a new tube and analyzed for protein concentration with a BCA kit (Pierce, 23227), followed by immunoblotting.

[2] = tested on: pKAP1/KAP1 in FADU tumors; test: Pharmacodynamic assay, pKAP1/KAP1 in FADU tumors; format: in vivo, mice; settings: for pKAP1/KAP1: FADU tumors
Excerpt: as §1, §2, §3, §4, §5

[3] = 10 Gy, 3 mg/kg oral, harvested 1 h post radiation
[4] = 10 Gy, 6 mg/kg oral, harvested 1 h post radiation
[5] = 10 Gy, 10 mg/kg oral, harvested 1 h post radiation

`CC(C)NCCOc1ncc(-c2cc3c4c(cnc3cc2F)N(C)C(=O)C42CCC2)cc1NS(C)(=O)=O` [Compound 569, N-(5-(7′-Fluoro-3′-methyl-2′-oxo-2′,3′-dihydrospiro[cyclobutane-1,1′-pyrrolo[2,3-c]quinolin]-8′-yl)-2-(2-(isopropylamino)ethoxy)pyridin-3-yl)methanesulfonamide] was tested, and the “Fold 2 Gy” value (MCF7 cells; 100 nM) was 7.5, the “Fold 4 Gy” value (MCF7 cells; 100 nM) was 21.8 and the “Fold 2 Gy” value (MCF7 cells; 250 nM) was 10.8. For the same compound, the “Fold 4 Gy” value (MCF7 cells; 250 nM) was 54.0, the “Fold 2 Gy” value (MCF7 cells; 500 nM) was 14.7 and the “Fold 4 Gy” value (MCF7 cells; 500 nM) was 91.5. The “Fold 2 Gy” value (MCF7 cells; 1000 nM) was 22.0, the “Fold 4 Gy” value (MCF7 cells; 1000 nM) was 198 and the radiosensitization (MCF7 cells; 5-h exposure, 100-1000 nM, IR 0, 2, 4 Gy) was “significant degree of radiosensitization”. The “cellular toxicity in the absence of IR” value (MCF7 cells; 5-h exposure, 100-1000 nM, no IR) was “without evidence of cellular toxicity”, the pDNA-PK/DNA-PK [1, 3] was 0.889 and the pDNA-PK/DNA-PK [1, 4] was 0.670. It also gave a pDNA-PK/DNA-PK [1, 5] of 0.454, a pDNA-PK/DNA-PK ([1]; no radiation, 10 mg/kg oral) of 0.223 and a pKAP1/KAP1 [2, 3] of 0.0903. For the same compound, the pKAP1/KAP1 [2, 4] was 0.0982, the pKAP1/KAP1 [2, 5] was 0.156 and the pKAP1/KAP1 ([2]; no radiation, 10 mg/kg oral) was 0.00595. It also gave an inhibition at 10 mg/kg ([2]; Mus musculus, FADU and MDA231 tumors (FIGS. 4 and 5, Tables 2-5), 10 Gy, 10 mg/kg, read-out: inhibition of tumor levels of radiation-induced phosphorylation of KAP1) greater than 80%.
